# From US9556152B2, “Heterocyclic amides as kinase inhibitors” (GlaxoSmithKline Intellectual Property Development Limited, priority 2013, dated 2017)
# pIC50: −log10 of the molar value. Read-outs that look alike come from different tables or passages of the source.
# What was measured:
# [1] = system: mouse TNF and zVAD induced temperature loss in mice; assay: TNF/zVAD-driven systemic inflammatory response syndrome model (short modality), temperature loss; format: in vivo
# Method: (§1) TNF (or TNF/zVAD) induced manifestations include temperature loss, the production of numerous cytokines (including IL-6, IL-1b, MIP1β and MIP2) in the periphery, liver and intestinal inflammation and an increase of markers of cellular (LDH and CK) and liver damage (AST and ALT) in the serum.
# Each test compound is run through the TNF/zVAD and TNF (alone) versions of the model. For example, mice (7 mice per group) were orally pre-dosed with vehicle or test compound at 50 mg/kg 15 minutes before i.v. administration of mouse TNF (30 m/mouse) and zVAD (0.4 mg/mouse) simultaneously. Temperature loss in the mice was measured by rectal probe. The study was terminated when the control group lost 7 degrees, per our IACUC protocol. […] All data are shown as means±standard error of the mean.
# [2] = system: mouse TNF induced temperature loss in mice; assay: TNF (alone)-driven systemic inflammatory response syndrome model (long modality), temperature loss; format: in vivo; conditions: oral pre-dose 50 mg/kg 15 minutes before i.v. mouse TNF
# Method: as §1
# In addition to the TNF/zVAD model, each compound is also tested in a TNF alone model. For the TNF (alone) version of the model, mice (7 mice per group) were orally pre-dosed with vehicle or test compound at 50 mg/kg 15 minutes before i.v. administration of mouse TNF (30 m/mouse). […] All data are shown as means±standard error of the mean.
# [3] = biological target: T1, RIP1 kinase (GST-RipK1 (1-375)) (Homo sapiens, UniProt Q13546)
# T1 sequence (Q13546 1-375): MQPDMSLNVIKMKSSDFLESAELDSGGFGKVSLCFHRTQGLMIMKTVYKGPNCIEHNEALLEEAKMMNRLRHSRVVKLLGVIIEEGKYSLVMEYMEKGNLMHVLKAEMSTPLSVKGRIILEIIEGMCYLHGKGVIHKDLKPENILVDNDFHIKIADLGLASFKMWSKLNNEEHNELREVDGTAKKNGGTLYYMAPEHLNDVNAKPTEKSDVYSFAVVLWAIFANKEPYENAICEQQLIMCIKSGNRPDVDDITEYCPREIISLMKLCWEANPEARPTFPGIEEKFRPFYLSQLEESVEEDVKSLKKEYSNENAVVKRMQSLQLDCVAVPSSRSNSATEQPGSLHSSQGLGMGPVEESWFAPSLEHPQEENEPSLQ
# Method: A fluorescent polarization based binding assay was developed to quantitate interaction of novel test compounds at the ATP binding pocket of RIP1, by competition with a fluorescently labeled ATP competitive ligand. […] Following the incubation, 5 ul of the fluorescent labeled ligand solution, was added to each reaction, at twice the final assay concentration, and incubated at room temperature for at least 15 minutes. Finally, samples were read on an instrument capable of measuring fluorescent polarization. Test compound inhibition was expressed as percent (%) inhibition of internal assay controls. For concentration response experiments, normalized data were fit and pIC50s determined using conventional techniques.
# [4] = oral pre-dose 30 mg/kg 15 minutes before i.v. mouse TNF and zVAD
# [5] = mean pIC50, FP competition binding, GST-RipK1 (1-375) 10 nM, fluorescent ligand 5 nM, mean of minimum 2 experiments
# [6] = oral pre-dose 10 mg/kg 15 minutes before i.v. mouse TNF and zVAD
# [7] = average pIC50 after continued testing, FP competition binding, updated average after continued testing
Structure (SMILES),"% Inhibition [1, 4]","pIC50 [3, 5]",further results
"CN1C(=O)[C@@H](NC(=O)c2cc(Cc3ccccc3)[nH]n2)CNc2ccccc21 [Example 190, (S)-5-benzyl-N-(1-methyl-2-oxo-2,3,4,5-tetrahydro-1H-benzo[b] [1,4]diazepin-3-yl)-1H-pyrazole-3-carboxamide]",85%,–,% Inhibition [2]: 56%
"CN1C(=O)[C@@H](NC(=O)c2nnc(Cc3ccccc3)[nH]2)COc2cccc(F)c21 [Example 91, (S)-5-benzyl-N-(6-fluoro-5-methyl-4-oxo-2,3,4,5-tetrahydrobenzo[b] [1,4]oxazepin-3-yl)-4H-1,2,4-triazole-3-carboxamide]",–,~7.60,–
"CN1C(=O)[C@@H](NC(=O)c2cc(Cc3ccc(F)cc3)n[nH]2)COc2ccccc21 [Example 125, (S)-3-(4-fluorobenzyl)-N-(5-methyl-4-oxo-2,3,4,5-tetrahydrobenzo[b] [1,4]oxazepin-3-yl)-1H-pyrazole-5-carboxamide]",25%,–,–
"O=C(N[C@H]1CCc2cc(Br)ccc2NC1=O)c1nnc(Cc2ccccc2)[nH]1 [Example 163, (S)-5-benzyl-N-(7-bromo-2-oxo-2,3,4,5-tetrahydro-1H-benzo[b]azepin-3-yl)-4H-1,2,4-triazole-3-carboxamide]",–,~7.90,"% Inhibition [1, 6]: 73%"
"O=C(N[C@H]1CCc2cc(Cl)ccc2NC1=O)c1nnc(Cc2ccccc2)[nH]1 [Example 161, (S)-5-benzyl-N-(7-chloro-2-oxo-2,3,4,5-tetrahydro-1H-benzo[b]azepin-3-yl)-4H-1,2,4-triazole-3-carboxamide]",–,~7.90,"% Inhibition ([1]; oral pre-dose 50 mg/kg 15 minutes before i.v. mouse TNF and zVAD): 85%; pIC50 [3, 7]: 7.70; % Inhibition [2]: 82%"
"CN1C(=O)[C@@H](NC(=O)c2ncn(Cc3ccccc3)n2)COc2ccccc21 [Example 45, (S)-1-benzyl-N-(5-methyl-4-oxo-2,3,4,5-tetrahydrobenzo[b] [1,4]oxazepin-3-yl)-1H-1,2,4-triazole-3-carboxamide]",–,–,"% Inhibition [1, 6]: 91%"
"Cc1ccc(Cc2cc(C(=O)N[C@H]3COc4ccccc4N(C)C3=O)[nH]n2)cc1 [Example 176, (S)-N-(5-methyl-4-oxo-2,3,4,5-tetrahydrobenzo[b] [1,4]oxazepin-3-yl)-5-(4-methylbenzyl)-1H-pyrazole-3-carboxamide]",34%,–,–
"CN1C(=O)[C@@H](NC(=O)c2cc(Cc3ccccc3)n[nH]2)COc2ccccc21 [Example 108, (S)-3-benzyl-N-(5-methyl-4-oxo-2,3,4,5-tetrahydrobenzo[b] [1,4]oxazepin-3-yl)-1H-pyrazole-5-carboxamide]",56%,–,–
"CN1C(=O)[C@@H](NC(=O)c2cc(Cc3ccccc3)on2)CNc2ccccc21 [Example 235, (S)-5-benzyl-N-(1-methyl-2-oxo-2,3,4,5-tetrahydro-1H-benzo[b] [1,4]diazepin-3-yl)isoxazole-3-carboxamide]",58%,–,% Inhibition [2]: 73%
"Cc1cc(F)c2c(c1)OC[C@H](NC(=O)c1nnc(CC3CCCC3)[nH]1)C(=O)N2 [Example 102, (S)-5-(cyclopentylmethyl)-N-(6-fluoro-8-methyl-4-oxo-2,3,4,5-tetrahydrobenzo[b] [1,4]oxazepin-3-yl)-4H-1,2,4-triazole-3-carboxamide]",–,~7.80,–
"Cc1nnc(-c2ccc3c(c2)N(C)C(=O)[C@@H](NC(=O)c2nnc(Cc4ccccc4)[nH]2)CO3)o1 [Example 169, (S)-5-benzyl-N-(5-methyl-7-(5-methyl-1,3,4-oxadiazol-2-yl)-4-oxo-2,3,4,5-tetrahydrobenzo[b][1, 4]oxazepin-3-yl)-4H-1,2,4-triazole-3-carboxamide]",–,~7.20,"pIC50 [3, 7]: 7.30"
"CN1C(=O)[C@@H](NC(=O)c2cc(Cc3ccccc3)n[nH]2)COc2ccc(Br)cc21 [Example 20, (S)-3-benzyl-N-(7-bromo-5-methyl-4-oxo-2,3,4,5-tetrahydrobenzo[b] [1,4]oxazepin-3-yl)-1H-pyrazole-5-carboxamide]",52%,–,% Inhibition [2]: 51%
"Cc1ccc(Cc2cc(C(=O)N[C@H]3CNc4ccccc4N(C)C3=O)n[nH]2)cc1 [Example 64, (S)-N-(1-methyl-2-oxo-2,3,4,5-tetrahydro-1H-benzo[b][1,4]diazepin-3-yl)-5-(4-methylbenzyl)-1H-pyrazole-3-carboxamide]",62%,–,–
"CN1C(=O)[C@@H](NC(=O)c2cc(Oc3ccccc3)ccn2)COc2ccccc21 [Example 97, (S)-N-(5-methyl-4-oxo-2,3,4,5-tetrahydrobenzo[b] [1,4]oxazepin-3-yl)-4-phenoxypicolinamide]",70%,–,–
"O=C(N[C@H]1CCc2ccccc2NC1=O)c1cc(Cc2ccccc2)on1 [Example 236, (S)-5-benzyl-N-(2-oxo-2,3,4,5-tetrahydro-1H-benzo[b]azepin-3-yl)isoxazole-3-carboxamide]",23%,–,–
